From patent publication US12606795B2 (Thankcome Biological Science and Technology (SuZhou) Co., …, priority 2023, dated 2026)

System: gouty arthritis mouse model
Test: Gouty arthritis mouse model (sodium urate)
Format: in vivo, BALB/c mice
Settings: for SOD in mouse ankle joint tissue: model group 1.07, normal 6.07; for MPO in mouse ankle joint tissue: model group 2.49, normal 0.38; for GSH in mouse ankle joint tissue: model group 18.06, normal 47.05; for IL-1β in serum of mice: model group 24.97, normal 12.66; for MDA in mouse ankle joint tissue: model group 26.69, normal 5.74; for IL-10 in serum of mice: model group 36.03, normal 27.20; for IL-6 in serum of mice: model group 90.05, normal 52.97; for TNF-α in serum of mice: model group 249.41, normal 117.58
Protocol: Mice were randomly divided into 5 groups: a normal group, a model group, a glucosamine sulfate (positive control) group, an Akk low-concentration experimental (Akk-L) group, and an Akk high-concentration experimental (Akk-H) group, with 10 mice in each group. The mice in the normal group and the mice in the model group were intragastrically administered with distilled water at a dosage of 0.1 mL/10 g. bw per day. The mice in the glucosamine sulfate group were intragastrically administered with glucosamine sulfate at a dosage of 195 mg/kg. bw. The mice in the Akk-L group and the mice in the Akk-H group were intragastrically administered with Akk experimental bacteria at a dosage of 10^8 CFU/kg. bw and 10^9 CFU/kg. bw, respectively, for 7 consecutive days. Then, all experimental mice were anesthetized with isoflurane, and then 50 μL of PBS solution was injected into the tibiotarsal joint (ankle joint) of the right paw of the mouse in the normal group. 50 mg of sodium urate was added to 1 mL of PBS buffer to prepare a suspension. 50 μL of suspension was injected into the tibiotarsal joints (ankle joint) of the right paws of the rest of the mice except the mice in the […] to induce gouty arthritis. After the mice woke up, they were intragastrically administrated with a corresponding sample for 7 d still at the dosage of the sample intragastrically administrated in the previous 7 days.
0.1 g of mouse ankle joint tissue was weighed and added into […] containing 0.9 mL of saline and mixing was performed. Subsequently, mixed tissue samples were centrifuged at a speed of 4000 rpm for 10 min to obtain liquid supernatant. Next, related indicators in the liquid supernatant of a tissue homogenate was determined using assay kits for MPO, SOD, GSH, and MDA.
A taken-out whole blood sample of the mouse was centrifuged at 4° C. at 4000 rpm for 10 min to obtain supernatant serum. Serum-related inflammatory indicators were determined using the ELISA kit for IL-6, IL-10, IL-1β, and TNF-α.

[1] = Akk-H 10^9 CFU/kg. bw intragastric
[2] = Akk-L 10^8 CFU/kg. bw intragastric

Akkermansia muciniphila [AKK PROBIO]
SOD in mouse ankle joint tissue [1]: 4.70 ± 0.16 U/mg
MPO in mouse ankle joint tissue [1]: 0.77 ± 0.06 U/g
GSH in mouse ankle joint tissue [1]: 39.28 ± 2.39 mg/g
IL-1β in serum of mice [1]: 18.48 ± 1.34 ng/mL
MDA in mouse ankle joint tissue [1]: 12.97 ± 1.20 nmol/mg
IL-10 in serum of mice [1]: 28.72 ± 1.35 ng/mL
IL-6 in serum of mice [1]: 58.83 ± 2.60 ng/mL
TNF-α in serum of mice [1]: 148.87 ± 9.60 ng/mL
SOD in mouse ankle joint tissue [2]: 2.31 ± 0.43 U/mg
MPO in mouse ankle joint tissue [2]: 1.97 ± 0.19 U/g
GSH in mouse ankle joint tissue [2]: 29.89 ± 2.63 mg/g
IL-1β in serum of mice [2]: 21.83 ± 1.72 ng/mL
MDA in mouse ankle joint tissue [2]: 20.93 ± 1.30 nmol/mg
IL-10 in serum of mice [2]: 34.17 ± 2.18 ng/mL
IL-6 in serum of mice [2]: 71.59 ± 5.46 ng/mL
TNF-α in serum of mice [2]: 211.76 ± 10.58 ng/mL
